Test results published in patent EP3753563A1, “ANTI-HERPESVIRUS GUANOSINE ANALOGUE FOR THE INHIBITION OF BASAL AUTOPHAGY” (Helmholtz-Zentrum für Infektionsforschung GmbH, priority 2019, dated 2020).

Tests used:
HSV = conditions: read-out: EC 50 concentration for HSV inhibition; cited from earlier work
[1] = test system: A549 GFP-LC3B reporter cells; experiment: High-content GFP-LC3B puncta analysis in fed or starved A549 reporter cells; type: cell-based, human
Description: (§1) For the single reporter analyses of figure 1 A549 stably transduced with a retroviral GFP LC3 fusion vector were used, for the tandem reporter analyses of figure 2 NIH mouse fibroblasts stably transduced with a retroviral RFP-GFP-LC3B fusion construct were employed. Cells were seeded on 96-well plates at a density of 3.5 x 10^4 cells per well in 100 µL of their respective growth medium (DMEM for NIH3T3 and F-12K for A549, respectively). The plates were left at room temperature for one hour without moving them to guarantee an even distribution of the cells on the well bottom and then cultured over night at 37 °C and 5% CO2.
(§2) On the next day, compounds were added at the appropriate concentration in either 100 µL of their normal fed medium or 100 µL of Hank's balanced salt solution (HBSS) to induce starvation and then cultured at 37 °C and 5% CO2 for 3 h or 1.5 h respectively. Subsequently, cells were carefully washed once with phosphate buffered saline (PBS), fixed in 4% formaldehyde for 20 min at room temperature and washed again twice with PBS. Nuclear staining was performed using 0.05% Hoechst 33342 solution in PBS for 10 min at room temperature.
After another two times of washing in PBS, cells could be stored in PBS at 4 °C and were ready for measurement with the automatic fluorescence microscope (ImageXpress Micro XLS Widefield High-Content Imaging system). For each well, images at nine different sites were taken automatically (60x objective, magnification 600x). […]
Duplicate samples were analyzed comprising 500-1000 cells/well, which represents a coverage of at least 2%/well. Analyses were performed using the Transfluor modul of MetaXpress 6 software (Molecular Devices) with the following settings: vesicle width 0.5 µm - 5 µm and necessary intensity above local background 2000 gray levels determined from the FITC or 500 gray levels determined from the Texas Red image. Size of nuclei 5 µm - 30 µm and necessary intensity above local background 2000 gray levels determined from the DAPI image.

[2] = test system: 3T3 fibroblasts harbor a RFP-GFP-LC3B tandem reporter construct; experiment: RFP-GFP-LC3B tandem reporter analysis of autophagic flux; type: cell-based, mouse; conditions: for mode of autophagy modulation: mouse 3T3 fibroblasts
Description: as §1, §2
After another two times of washing in PBS, cells could be stored in PBS at 4 °C and were ready for measurement with the automatic fluorescence microscope (ImageXpress Micro XLS Widefield High-Content Imaging system). For each well, images at nine different sites were taken automatically (60x objective, magnification 600x). Exposure times were 150 ms for DAPI, 1000 ms for FITC (single reporter LC3) and 150 ms for DAPI, 1000 ms for FITC, 5000 ms for Texas Red (tandem reporter analysis).
NIH/3T3 cells stably expressing RFP-GFP-LC3 were treated to induce or inhibit autophagy (for control) and with the compound in question and taken for image acquisition (described above). Between 120-160 cells were analyzed in each quantification for vesicular, red spot numbers and colocalization of punctate red/green signals using the Gen5 software package (BioTek). Average values are shown.
In this assay, red spot numbers correlate with total LC3 autophagic particles, yellow colocalization parallels the number of autophagosomes/phagophores.

[3] = test system: wt and mutant ATG4D^G1288A Lagotto Romagnolo dog fibroblasts; experiment: LC3 Western blot of basal and induced autophagy in dog fibroblasts (NVSD model); type: cell-based
Description: Induction (starvation in Earle's Balanced Salt Solution (EBSS)) increases autophagy activity, as detected by formation of the marker LC3-II. Since autophagy consists of several steps and the last one is a degradation step, a block must be set in order to assess the proportion of the synthesis/maturation step more precisely. To this end, Bafilomycin A1 (BafA1) is added to the cells. BafA1 inhibits the fusion of autophagosomes to autolysosomes and then the degradation of the vesicle content. The comparison +/- Baf A1 is used to measure the autophagy flux. Since BafA1 inhibits the degradation of vesicle contents, LC3-II determination in WBs can be used to determine the rate of autophagosome production/maturation (corresponding to the early to middle part of the autophagy process) and the rate of autolysosomal degradation (late phase), i.e. the total degradation capacity.
A reference sample was loaded onto each gel to compare the results of different gels. The reference sample consists of WT cells grown in full medium conditions without any treatment. Graphs show expression levels of LC3-II normalized to the loading control (tubulin) and the reference sample and represent mean + SEM.
Fibroblasts from affected dogs and age-, breed-, and sex-matched controls were cultured in high glucose Dulbecco's Modified Eagle Medium (DMEM 41965-039 Gibco) with 10% fetal bovine serum (FBS 10500056 Gibco) and penicillin-streptomycin (PenStrep15140122 Gibco). During second or third passages, cells were seeded at equal density onto Petri dishes and additionally onto glass cover slips. […] Beta actin was used as the loading control for relative quantification of the blots (anti-beta Actin PA5-16914 Thermo Fischer Scientific). Signals were visualized by enhanced chemiluminescence and further analyzed by densitometry. […]

| SMILES | EC50 (HSV) [nM] | amount of membrane-bound GFP-LC3 compared to the control ([1]; fed cells (basal autophagy), 3 h, LC3-positive vesicle area per cell) [%] | inhibition of induced autophagy ([1]; starved cells, 1.5 h) | reduction of the number of autolysosomes ([2]; calculated by subtraction) [fold] | reduction of total autophagic particle numbers ([2]; compared to the control) [%] | mode of autophagy modulation [2] | autophagosome/phagophores ([2]; yellow colocalization) | LC3-II levels of basal autophagy ([3]; mutant LR cells, 1 µM A2, two hours, with BafA1) | LC3 levels induced by starvation ([3]; starvation in EBSS, 1 µM A2 (lanes 4 and 8)) | LC3 I ([3]; treated mutant cells, Western blot lanes 5 DMSO and A2) | total LC3 containing autophagic particle numbers compared to the control ([2]; red spot numbers, 2 µM Chloroquine, 120-160 cells) | reduction of LC3 fluorescence compared to the control ([1]; fed A549 cells, vesicular GFP 3h after treatment) |
| --- | --- | --- | --- | --- | --- | --- | --- | --- | --- | --- | --- | --- |
| Nc1nc2c(ncn2COCCO)c(=O)[nH]1 [compound A2, aciclovir] | 1300 | 60 | does not inhibit induced autophagy | 4 | 40 | early inhibition of autophagy | slight increase | diminishes LC3-II levels of basal autophagy in mutant LR cells to level observed in wt cells | nearly unaltered | less LC3 I seems to be present | – | – |
| CCN(CC)CCCC(C)Nc1ccnc2cc(Cl)ccc12 (stereo not shown) [Chloroquine] | – | – | – | – | – | late inhibition | – | – | – | – | increased | – |
| CC(=O)OCC(CCn1cnc2cnc(N)nc21)COC(C)=O [Famciclovir] | – | – | – | – | – | – | – | – | – | – | – | 2 -fold |
